Several values for one entry are separate records, joined by “and”; a condition that tells them apart may be missing. Identical values can stand only once.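 Here, GI50 denotes the concentration required for 50% inhibition of growth. The concentration for full growth arrest is given as TGI.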
Key:
Experiment in all cases: growth of human tumour cells (NCI), 384-well format
[1] = test system: MALME-3M melanoma
[2] = test system: U251 glioblastoma
[3] = test system: SNB-75 CNS
[4] = test system: NCI-H522 lung
[5] = test system: DU-145 prostate
[6] = test system: LOX IMVI melanoma
[7] = test system: PC-3 prostate
[8] = test system: NCI-H322M lung
[9] = test system: CAKI-1 renal
[10] = test system: NCI-H226 lung
[11] = test system: HT29 colon
[12] = test system: HOP-62 NSCLC
[13] = test system: SK-MEL-28 melanoma
[14] = test system: SF-295 CNS
[15] = test system: HOP-92 NSCLC
[16] = test system: SW-620 colon
[17] = test system: EKVX NSCLC
[18] = test system: HS 578T breast
[19] = test system: HL-60(TB) leukemia
[20] = test system: CCRF-CEM leukemia
[21] = test system: HCC-2998 colon
[22] = test system: RPMI-8226 leukemia
[23] = test system: NCI-H23 lung
[24] = test system: MDA-MB-468 breast
[25] = test system: SN12C renal
[26] = test system: UACC-62 melanoma
[27] = test system: OVCAR-4 ovarian
[28] = test system: NCI-H460 NSCLC
[29] = test system: MDA-MB-435 melanoma
[30] = test system: HCT-15 colon
[31] = test system: MOLT-4 leukemia
[32] = test system: TK-10 renal
[33] = test system: BT-549 breast
[34] = test system: KM12 colon
[35] = test system: SK-MEL-5 melanoma
[36] = test system: HCT-116 colon
[37] = test system: MDA-MB-231 breast
[38] = test system: UACC-257 melanoma
[39] = test system: MCF7 breast
[40] = test system: OVCAR-3 ovarian
[41] = test system: T-47D breast
[42] = test system: ACHN renal
[43] = test system: SK-OV-3 ovarian
[44] = test system: IGROV1 ovarian
[45] = test system: COLO 205 colon
[46] = test system: NCI/ADR-RES ovarian
[47] = test system: K-562 leukemia
[48] = test system: SF-539 CNS
[49] = test system: OVCAR-5 ovarian
[50] = test system: OVCAR-8 ovarian
[51] = test system: RXF 393 renal
[52] = test system: 786-0 renal
[53] = test system: A498 renal
[54] = test system: SNB-19 CNS
[55] = test system: M14 melanoma
[56] = test system: SF-268 CNS
[57] = test system: UO-31 renal
[58] = test system: A549 NSCLC
[59] = test system: SK-MEL-2 melanoma

SMILES: CNC(=O)c1ccc(Nc2ncc(C(F)(F)F)c(NCc3nccnc3N(C)S(C)(=O)=O)n2)cc1
- GI50 [1]: 2120 nM and 2650 nM
- TGI [1]: 4880 nM and 6180 nM
- GI50 [2]: 2170 nM and 2960 nM
- TGI [2]: 7560 nM and 10200 nM
- GI50 [3]: 1280 nM and 1780 nM
- TGI [3]: 3690 nM and 4750 nM
- GI50 [4]: 1940 nM and 2470 nM
- TGI [4]: 3630 nM and 4420 nM
- GI50 [5]: 1710 nM and 2200 nM
- TGI [5]: 10700 nM and 11100 nM
- GI50 [6]: 1530 nM and 1650 nM
- TGI [6]: 3340 nM and 3520 nM
- GI50 [7]: 2110 nM and 3350 nM
- TGI [7]: 6150 nM and 10700 nM
- GI50 [8]: 2040 nM and 2200 nM
- TGI [8]: 5320 nM and 6000 nM
- GI50 [9]: 1300 nM and 1480 nM
- TGI [9]: 4510 nM and 4900 nM
- GI50 [10]: 2050 nM
- TGI [10]: 11900 nM and 7960 nM
- GI50 [11]: 2110 nM and 2250 nM
- TGI [11]: 5190 nM and 5710 nM
- GI50 [12]: 2040 nM and 2110 nM
- TGI [12]: 6310 nM and 7250 nM
- GI50 [13]: 1780 nM and 2340 nM
- TGI [13]: 3650 nM and 4720 nM
- GI50 [14]: 2720 nM and 2750 nM
- TGI [14]: 9230 nM and 8160 nM
- GI50 [15]: 2210 nM and 2540 nM
- TGI [15]: 6440 nM and 6500 nM
- GI50 [16]: 2020 nM and 2460 nM
- TGI [16]: 4390 nM and 5130 nM
- GI50 [17]: 1580 nM and 1890 nM
- TGI [17]: 4560 nM and 5270 nM
- GI50 [18]: 1300 nM and 449 nM
- TGI [18]: 3100 nM and 2420 nM
- GI50 [19]: 1610 nM and 2020 nM
- TGI [19]: 2970 nM and 3470 nM
- GI50 [20]: 1710 nM and 2100 nM
- TGI [20]: 3280 nM and 3730 nM
- GI50 [21]: 1500 nM and 1740 nM
- TGI [21]: 4340 nM and 4680 nM
- GI50 [22]: 1810 nM and 2260 nM
- TGI [22]: 3210 nM and 3750 nM
- GI50 [23]: 1590 nM and 1740 nM
- TGI [23]: 3170 nM and 3430 nM
- GI50 [24]: 1350 nM and 1790 nM
- TGI [24]: 2950 nM and 3710 nM
- GI50 [25]: 1940 nM and 2360 nM
- TGI [25]: 4120 nM and 4970 nM
- GI50 [26]: 1190 nM and 1400 nM
- TGI [26]: 2490 nM and 2810 nM
- GI50 [27]: 2310 nM and 3190 nM
- TGI [27]: 10200 nM and 14100 nM
- GI50 [28]: 1470 nM and 1670 nM
- TGI [28]: 3130 nM and 3370 nM
- GI50 [29]: 2880 nM and 4550 nM
- TGI [29]: 11800 nM and 14400 nM
- GI50 [30]: 1840 nM and 2790 nM
- TGI [30]: 5700 nM and 8920 nM
- GI50 [31]: 1950 nM and 2160 nM
- TGI [31]: 3580 nM and 3840 nM
- GI50 [32]: 1770 nM and 2240 nM
- TGI [32]: 5220 nM and 6820 nM
- GI50 [33]: 1580 nM and 1990 nM
- TGI [33]: 3400 nM and 4080 nM
- GI50 [34]: 250 nM and 239 nM
- TGI [34]: 2360 nM and 2860 nM
- GI50 [35]: 1340 nM and 1250 nM
- TGI [35]: 2690 nM and 2640 nM
- GI50 [36]: 1750 nM and 1940 nM
- TGI [36]: 6220 nM and 4860 nM
- GI50 [37]: 2380 nM and 3040 nM
- TGI [37]: 11700 nM and 14600 nM
- GI50 [38]: 2060 nM and 2930 nM
- TGI [38]: 5320 nM and 8360 nM
- GI50 [39]: 2210 nM and 1900 nM
- TGI [39]: 7680 nM and 5850 nM
- GI50 [40]: 1420 nM and 1980 nM
- TGI [40]: 3940 nM and 4840 nM
- GI50 [41]: 2500 nM and 2670 nM
- TGI [41]: 6900 nM and 7180 nM
- GI50 [42]: 1910 nM and 2090 nM
- TGI [42]: 9330 nM and 9550 nM
- GI50 [43]: 1310 nM and 1770 nM
- TGI [43]: 5300 nM and 9750 nM
- GI50 [44]: 558 nM and 673 nM
- TGI [44]: 5910 nM and 8380 nM
- GI50 [45]: 2030 nM and 2410 nM
- TGI [45]: 5340 nM and 5980 nM
- GI50 [46]: 13500 nM and 16000 nM
- TGI [46]: 40500 nM and 35500 nM
- GI50 [47]: 3450 nM and 3440 nM
- TGI [47]: 16800 nM
- GI50 [48]: 1550 nM and 1950 nM
- TGI [48]: 3290 nM and 3850 nM
- GI50 [49]: 2140 nM and 2410 nM
- TGI [49]: 6770 nM and 7250 nM
- GI50 [50]: 2730 nM and 3010 nM
- TGI [50]: 7710 nM and 8760 nM
- GI50 [51]: 1150 nM and 1170 nM
- TGI [51]: 2710 nM and 2730 nM
- GI50 [52]: 2400 nM and 2390 nM
- TGI [52]: 10800 nM and 8970 nM
- GI50 [53]: 1080 nM and 1350 nM
- TGI [53]: 4630 nM and 5830 nM
- GI50 [54]: 3050 nM and 3920 nM
- TGI [54]: 13300 nM and 12400 nM
- GI50 [55]: 1290 nM and 1530 nM
- TGI [55]: 3780 nM and 4150 nM
- GI50 [56]: 1030 nM and 681 nM
- TGI [56]: 2350 nM and 2260 nM
- GI50 [57]: 1820 nM and 1980 nM
- TGI [57]: 4840 nM and 4750 nM
- GI50 [58]: 2350 nM and 2240 nM
- TGI [58]: 6470 nM and 6060 nM

SMILES: Cc1ccc(S(=O)(=O)Oc2ccc3sc4c(CO)ccc(NCCN(C)C)c4c(=O)c3c2)cc1
- GI50 [1]: 2150 nM
- TGI [1]: 3610 nM
- GI50 [2]: 2220 nM
- TGI [2]: 3700 nM
- GI50 [3]: 2350 nM
- TGI [3]: 3820 nM
- GI50 [4]: 2200 nM
- TGI [4]: 3660 nM
- GI50 [5]: 2090 nM
- TGI [5]: 3540 nM
- GI50 [6]: 1710 nM
- TGI [6]: 3110 nM
- GI50 [7]: 2010 nM
- TGI [7]: 3450 nM
- GI50 [8]: 2120 nM
- TGI [8]: 3570 nM
- GI50 [9]: 1900 nM
- TGI [9]: 3340 nM
- GI50 [10]: 1470 nM
- TGI [10]: 2800 nM
- GI50 [11]: 1800 nM
- TGI [11]: 3210 nM
- GI50 [12]: 2080 nM
- TGI [12]: 3520 nM
- GI50 [13]: 2160 nM
- TGI [13]: 3620 nM
- GI50 [14]: 1960 nM
- TGI [14]: 3380 nM
- GI50 [15]: 2120 nM
- TGI [15]: 3570 nM
- GI50 [16]: 1840 nM
- TGI [16]: 3270 nM
- GI50 [17]: 1880 nM
- TGI [17]: 3300 nM
- GI50 [59]: 2070 nM
- TGI [59]: 3510 nM
- GI50 [18]: 2010 nM
- TGI [18]: 3450 nM
- GI50 [19]: 1590 nM
- TGI [19]: 2950 nM
- GI50 [20]: 1620 nM
- TGI [20]: 2990 nM
- GI50 [21]: 1940 nM
- TGI [21]: 3360 nM
- GI50 [22]: 1920 nM
- TGI [22]: 3330 nM
- GI50 [23]: 2030 nM
- TGI [23]: 3460 nM
- GI50 [24]: 3820 nM
- TGI [24]: 5270 nM
- GI50 [25]: 1640 nM
- TGI [25]: 3010 nM
- GI50 [26]: 2100 nM
- TGI [26]: 3560 nM
- GI50 [27]: 2240 nM
- TGI [27]: 3700 nM
- GI50 [28]: 1900 nM
- TGI [28]: 3340 nM
- GI50 [29]: 2130 nM
- TGI [29]: 3570 nM
- GI50 [30]: 2070 nM
- TGI [30]: 3530 nM
- GI50 [31]: 1790 nM
- TGI [31]: 3180 nM
- GI50 [32]: 1990 nM
- TGI [32]: 3410 nM
- GI50 [33]: 1890 nM
- TGI [33]: 3310 nM
- GI50 [34]: 1870 nM
- TGI [34]: 3300 nM
- GI50 [35]: 1640 nM
- TGI [35]: 3020 nM
- GI50 [36]: 2140 nM
- TGI [36]: 3620 nM
- GI50 [38]: 2840 nM
- TGI [38]: 4320 nM
- GI50 [39]: 1720 nM
- TGI [39]: 3110 nM
- GI50 [40]: 1970 nM
- TGI [40]: 3390 nM
- GI50 [42]: 1890 nM
- TGI [42]: 3330 nM
- GI50 [43]: 1940 nM
- TGI [43]: 3380 nM
- GI50 [44]: 1790 nM
- TGI [44]: 3180 nM
- GI50 [45]: 2140 nM
- TGI [45]: 3600 nM
- GI50 [46]: 2060 nM
- TGI [46]: 3500 nM
- GI50 [47]: 1910 nM
- TGI [47]: 3330 nM
- GI50 [48]: 2080 nM
- TGI [48]: 3540 nM
- GI50 [50]: 1630 nM
- TGI [50]: 3020 nM
- GI50 [51]: 1990 nM
- TGI [51]: 3420 nM
- GI50 [52]: 1850 nM
- TGI [52]: 3270 nM
- GI50 [53]: 1980 nM
- TGI [53]: 3410 nM
- GI50 [54]: 2210 nM
- TGI [54]: 3690 nM
- GI50 [55]: 2160 nM
- TGI [55]: 3610 nM
- GI50 [56]: 2200 nM
- TGI [56]: 3660 nM
- GI50 [58]: 1840 nM
- TGI [58]: 3280 nM

Reference: PubChem BioAssay (NCI)
